# According to patent US11331290B2, “Niclosamide for the treatment of cancer metastasis” (Max-Delbrück-Centrum für Molekulare Medizin in der …, priority 2011, dated 2022):
# Columns and labels:
# Format in all cases: cell-based, human
# LS174T cells = assay: Boyden chamber invasion assay (Matrigel); details: 1 μM, 24 h
# Protocol: (§1) HCT116, SW620, LS174T, SW480 and DLD-1 cells were used in cell migration and invasion analysis performed with Boyden chamber assay. 400 μL containing 2.5×10^5 cells were seeded into each transwell chamber with filter membranes of 12.0 μm pore size (Millipore, Schwalbach, Germany). For invasion filter membranes were coated with 50 μL Matrigel (diluted 1:3 in RPMI-1640; BD Biosciences) 10 minutes before cells were seeded. Fresh medium (600 μL) were added to the bottom chamber and cells were allowed to attach to the insets for 15 hours. Both chambers were treated with 1 μM niclosamide or the respective amount of DMSO and incubated at 37° C. and 5% CO2 in a humidified incubator for 24 hours. Afterwards insets were removed and cells that had migrated through the membrane to the lower chamber were trypsinized and counted in a Neubauer chamber (LO-Laboroptik, Bad Homburg, Germany). Each well was counted ten times. Each migration or invasion experiment was performed in duplicate. The average number of migrated or invaded cells was determined for at least three independent experiments.
# (§2) (A) S100A4 expression under niclosamide treatment. Cells were treated with 1 μM niclosamide for 24 hours. S100A4 expression was analyzed with qRT-PCR and immunoblot. (B) Cell migration under niclosamide treatment. Migration rates of cells treated with 1 μM niclosamide for 24 hours were determined in a Boyden chamber assay values were normalized to solvent-treated SW620 cells. (C) Cell invasion under niclosamide treatment. Cells were seeded onto Matrigel covered transwells and treated with 1 μM niclosamide for 24 hours. Invaded cells in the lower chamber were counted and normalized to solvent-treated SW620 cells. Differences in solvent vs. niclosamide-treated cells were analyzed by Student's t test. Data represent mean±SE of at least two independent experiments each performed in triplicate. (D) Directed migration under niclosamide treatment. Wounds of 300 μM width were set in a 60% confluent monolayer of cells on day 1. Cells were treated daily with 1 μM niclosamide for 4 days. Microphotographs of day 4 are presented here with black lines indicating margins of the wound on day 1; scale bar represents 200 μM. Directed migration data shown are representatives of three independent experiments. (E) Adhesive cell proliferation under niclosamide treatment. Cells were treated daily with 1 μM niclosamide. The amount of viable cells per well was determined by MTT assay. (F) Anchorage-independent cell growth under niclosamide treatment. Cells were plated as single cells into 0.33% (w/v) agarose and treatment (solvent or 1 μM niclosamide) containing medium. After 7 days colonies were visualized by light microscopy at 10× (overview) and 40× (single colony) magnification. (G) Quantification of colonies formed. Number of colonies (of more than 4 cells) was counted and normalized to solvent-treated SW620 cells. Differences in solvent vs. niclosamide-treated cells were analyzed by Student's t test. Data represent mean mean±SE of at least two independent experiments each performed in duplicates.
# SW620 cells = assay: Boyden chamber invasion assay (Matrigel); details: 1 μM, 24 h
# Protocol: as §1, §2
# SW480 cells = assay: Boyden chamber invasion assay (Matrigel); details: 1 μM, 24 h
# Protocol: as §1, §2
# DLD-1 cells = assay: Boyden chamber invasion assay (Matrigel); details: 1 μM, 24 h
# Protocol: as §1, §2
# HCT116-vector cells = assay: Boyden chamber transwell migration assay; details: 24 h
# Protocol: as §1
# (§3) (A) Cell migration of HCT116-vector and HCT116-S100A4 cells exposed to niclosamide treatment. Cells were treated with 1 μM niclosamide for 24 hours and migration rates were measured with Boyden chamber assay. (B) Cell invasion of HCT116-vector and HCT116-S100A4 cells exposed to niclosamide treatment. Cells were treated with 1 μM niclosamide for 24 hours and cell invasion was determined by Boyden chamber assay. (C) Directed migration of HCT116-vector and HCT116-S100A4 cells exposed to niclosamide treatment analyzed by wound healing assay. Wounds of 300 μM width were set in a 60% confluent monolayer of HCT116-vector or HCT116-S100A4 cells on day 1. Cells were treated daily with 1 μM niclosamide for 4 days. Microphotographs of day 4 are presented here with black lines indicating margins of entered wound of day 1; scale bar represents 200 μM. Data represents three independent experiments. (D) Adhesive cell proliferation of HCT116-vector and HCT116-S100A4 cells exposed to niclosamide treatment. Cells were treated daily with 1 μM niclosamide and cell viability was determined with MTT assay. (E) Anchorage-independent cell growth of HCT116-vector and HCT116-S100A4 cells exposed to niclosamide treatment. Cells were plated as single cells into 0.33% (w/v) agarose and treatment (solvent or 1 μM niclosamide) containing medium. After 7 days colonies were visualized by light microscopy at 10× (overview) and 40× (single colony) magnification. (F) Quantification of colonies formed. Number of colonies (of more than 4 cells) was counted and normalized to solvent-treated HCT116-vector cells. Differences of niclosamide vs. solvent-treated cells were analyzed by Student's t test. […]
# HCT116-S100A4 cells = assay: Boyden chamber transwell migration assay; details: 1 μM, 24 h, statistically not significant
# Protocol: as §1, §3
compound,measurement,setting,value
"O=C(Nc1ccc([N+](=O)[O-])cc1Cl)c1cc(Cl)ccc1O [niclosamide, 2′,5-dichloro-4′-nitrosalicylanilide]","invasion, mean difference control vs niclosamide",LS174T cells,39.5%
same,"cell invasion, mean % (normalized to solvent-treated SW620 cells)",LS174T cells; solvent control 63.2%,23.6%
same,"invasion, mean difference control vs niclosamide",SW620 cells,74.9%
same,"cell invasion, mean % (normalized to solvent-treated SW620 cells)",SW620 cells; solvent control 100.0%,25.1%
same,"invasion, mean difference control vs niclosamide",SW480 cells,34.9%
same,"cell invasion, mean % (normalized to solvent-treated SW620 cells)",SW480 cells; solvent control 47.7%,12.8%
same,invasion rate,DLD-1 cells,not affected
same,"migration, mean difference control vs niclosamide",HCT116-vector cells; 1 μM,57.0%
same,activity at 1 µM,"HCT116-vector cells; Homo sapiens, read-out: number of migrated cells, mean % of control",43%
same,"migration rate, mean %",HCT116-S100A4 cells; solvent control 145.0%,117.0%
same,"migration, mean difference control vs niclosamide",HCT116-S100A4 cells,28%
